Data as given in BigSolDB 2.1.

NC(=O)c1ccc(N)cc1
solubility (mole fraction)
Details	283.15 K	288.15 K	293.15 K	298.15 K	303.15 K	308.15 K	313.15 K	318.15 K	323.15 K
in acetone	0.00745	0.00795	0.0086	0.00956	0.0105	0.0118	0.0137	0.0154	0.0176
in acetonitrile	0.00193	0.00204	0.00225	0.00251	0.00298	0.0036	0.00447	0.00546	0.00661
in ethanol	0.00621	0.00649	0.00697	0.00777	0.00883	0.0104	0.0121	0.0141	0.016
in ethyl acetate	0.000539	0.000606	0.000697	0.000845	0.00103	0.00131	0.00166	0.00207	0.00257
in isobutanol	0.00239	0.00249	0.00263	0.0028	0.00309	0.00342	0.00384	0.00422	0.00467
in isopropanol	0.00331	0.00354	0.00393	0.00431	0.00487	0.00577	0.00677	0.00819	0.00965
in methanol	0.0121	0.0132	0.0145	0.0163	0.0188	0.0214	0.0246	0.0287	0.0328
in methyl acetate	0.00147	0.00154	0.0017	0.00194	0.00217	0.00247	0.00274	0.00311	0.00347
in n-butanol	0.00257	0.00274	0.00292	0.00313	0.00345	0.00375	0.00421	0.00468	0.00514
in n-butyl acetate	0.000749	0.000819	0.000974	0.00121	0.00152	0.00186	0.00229	0.00275	0.00331
in n-propanol	0.00401	0.00411	0.0044	0.00496	0.00585	0.00711	0.00839	0.01	0.0117
in water	0.000858	0.000983	0.00118	0.00146	0.00184	0.00229	0.00281	0.00364	0.00449
